{"source": "patent US11834413B2", "about": "“Antiplatelet drugs and uses thereof” (SHANGHAI CUREGENE PHARMACEUTICAL CO., LTD., priority 2020, dated 2023)", "key": {"[1]": {"conditions": "after absorption; cited from earlier work"}, "[2]": {"conditions": "after a loading dose (600 mg); cited from earlier work"}, "platelet aggregation": {"tested_on": "platelet aggregation", "test": "Antiaggregatory action in rats: ex vivo ADP-induced platelet aggregation in PRP, turbidimetric aggregometry", "set-up": "species or system Male Sprague-Dawley rats", "conditions": "rat, oral", "procedure": "Assay 2: Antiaggregatory Action in Rats\nMale Sprague-Dawley rats were used for ex vivo platelet aggregation experiments. After oral administrated with (clopidogrel, exemplary compounds provided herein and vehicle (control)) to rats, blood was collected via jugular vein at 0.5 hour, 1 hour and 2 hour time points, using 3.8% (w/v) sodium citrate solution as an anticoagulant ( 1/9 volume of whole blood). Blood samples with citrate were centrifuged at a low speed of 1000 rmp for 5 min to obtain platelet-rich plasma (PRP). After separation of PRP, the remained blood was further centrifuged at a high speed of 3000 rmp for 10 min to obtain platelet-poor plasma (PPP). The number of platelets in PRP was measured by hematology analyzer (Siemens, ADVIA2120), and adjusted to 4×10^8/mL with PPP.\nPlatelet aggregation was determined using turbidimetric aggregometry method by an automatic platelet aggregometer (PRECIL LBY-NJ4). The aggregometer was primarily warmed up to 37° C., and PRP (290 μL) sample was added to the cuvette and set in the automatic platelet aggregometer. After a 5 min pre-incubation, calibrated the aggregometer using PPP to representing 100% aggregation and PRP to representing 0% aggregation. Finally, a volume of […] ADP solution (final concentration 10 μM) was added to PRP sample to initial platelet aggregation. Platelet aggregation was monitored for 5 min and maximum platelet aggregation (%) was reported within the duration. Antiaggregatory action of test compounds was expressed as inhibition (%) which determined by the relation: Inhibition (%)=(maximum platelet aggregation (%) of control−maximum platelet aggregation (%) of test compound)/(maximum platelet aggregation (%) of control)*100"}, "[3]": {"test": "Pharmacokinetic in rats: concentration of the thiol active metabolite in plasma", "assay_type": "in vivo, Male Sprague-Dawley rats", "conditions": "for peak concentration of the thiol active metabolite compared with clopidogrel: rat plasma; for release of the active metabolite compared with clopidogrel: rat", "procedure": "Assay 1: Pharmacokinetic in Rats\nMale Sprague-Dawley rats were used to conduct pharmacokinetic experiment.\nTest compounds (clopidogrel and exemplary compounds provided herein) was administrated orally or intravenously to rat under fast condition. Blood samples were collected via jugular vein at 5 min, 15 min, 30 min, 60 min and 120 min time points with EDTA-K2 (anticoagulant), 3′-methoxyphenacyl bromide (MPBr, derivatization reagent) and phenylmethylsulfonyl fluoride (PMSF, stabilizer). Plasma samples were then harvested by centrifuging at 1500 g for 10 min under 2-8° C. and stored at −80° C. after separation. Plasma samples were loaded to a LC-MS/MS instrument after extraction to determine the concentration of the thiol active metabolite."}}, "data": [{"smiles": "COC(=O)[C@H](c1ccccc1Cl)N1CCc2sccc2C1", "note": "[clopidogrel, Clopidogrel]", "values": [{"measurement": "fraction hydrolysed by esterases into an inactive carboxylic acid", "setting": "[1]", "value": 85, "unit": "%"}, {"measurement": "fraction undergoing two-step oxidation via hepatic cytochrome P450 isoenzymes, mainly CYP2C19", "setting": "[1]", "value": 15, "unit": "%"}, {"measurement": "onset of action", "setting": "[2]", "value": 2, "unit": "h"}, {"measurement": "inhibition at 10 mg/kg", "setting": "platelet aggregation; Platelet, 10 mg/kg, ADP 10 μM, read-out: maximum inhibition of platelet aggregation", "value": "~45", "unit": "%"}, {"measurement": "time after administration to maximum inhibition of platelet aggregation", "setting": "platelet aggregation; 10 mg/kg", "value": "about 120 minutes"}]}, {"smiles": "COC(=O)[C@H](c1ccccc1Cl)N1CCC(SCOC(=O)OC(C)C)/C(=C/C(=O)O)C1", "note": "(stereo partly drawn) [compound 1a]", "values": [{"measurement": "peak concentration of the thiol active metabolite compared with clopidogrel", "setting": "[3]; oral, dose level 10 mg/kg", "value": "significantly higher than that for clopidogrel"}, {"measurement": "release of the active metabolite compared with clopidogrel", "setting": "[3]; oral, dose level 10 mg/kg", "value": "faster and more efficient release of the active metabolite than clopidogrel"}]}, {"smiles": "COC(=O)[C@H](c1ccccc1Cl)N1CCC(SCOC(=O)OC(C)C)/C(=C\\C(=O)O)C1", "note": "(stereo partly drawn) [compound 1b]", "values": [{"measurement": "inhibition at 2 mg/kg", "setting": "platelet aggregation; Platelet, 2 mg/kg, ADP 10 μM, read-out: maximum inhibition of platelet aggregation", "value": "~45", "unit": "%"}, {"measurement": "time after administration to maximum inhibition of platelet aggregation", "setting": "platelet aggregation; 2 mg/kg", "value": 60, "unit": "min"}, {"measurement": "onset of action and potency compared with clopidogrel", "setting": "platelet aggregation; 2 mg/kg vs clopidogrel 10 mg/kg", "value": "much faster onset of action and much higher potency than clopidogrel"}, {"measurement": "peak concentration of the thiol active metabolite compared with clopidogrel", "setting": "[3]; oral, dose level 10 mg/kg", "value": "significantly higher than that for clopidogrel"}, {"measurement": "release of the active metabolite compared with clopidogrel", "setting": "[3]; oral, dose level 10 mg/kg", "value": "faster and more efficient release of the active metabolite than clopidogrel"}]}, {"smiles": "CCOC(=O)/C=C1\\CN([C@H](C(=O)OC)c2ccccc2Cl)CCC1SCOC(=O)OC(C)C", "note": "(stereo partly drawn) [compound 2a]", "values": [{"measurement": "peak concentration of the thiol active metabolite compared with clopidogrel", "setting": "[3]; oral, dose level 10 mg/kg", "value": "significantly higher than that for clopidogrel"}, {"measurement": "release of the active metabolite compared with clopidogrel", "setting": "[3]; oral, dose level 10 mg/kg", "value": "faster and more efficient release of the active metabolite than clopidogrel"}]}, {"smiles": "COC(=O)OCSC1CCN([C@H](C(=O)OC)c2ccccc2Cl)C/C1=C/C(=O)O", "note": "(stereo partly drawn) [compound 3]", "values": [{"measurement": "release of the active metabolite compared with clopidogrel", "setting": "[3]; oral 2 mg/kg and intravenous 1 mg/kg vs clopidogrel oral 10 mg/kg", "value": "faster and more efficient release of the active metabolite than clopidogrel"}]}]}
